Key:
A549 tumors = experiment: Anti-tumor efficacy of Compound 1 in the A549 xenograft model (Example 11); assay type: in vivo, mice
Procedure: Female BALB/c nude mice were inoculated subcutaneously in the right flank with A549 cells for tumor development. Eight days after tumor inoculation, mice with tumor sizes ranging from 100-200 mm^3 (average tumor size 156 mm^3) were selected and assigned into groups using stratified randomization with 8 mice per group based upon their tumor volumes. The treatments were started from the day of randomization (defined as D0), Group 1 was treated with Vehicle control, 10 ml/kg, IP, bid×21; Group 4 was treated with Compound 1; 1.4 mg/kg, SC, 5d ON, 2 d OFF×3 cycles; and Group 5 was treated with Compound 1, 3.3 mg/kg, IV, tiw, (Fri, Sun, Tues), ×3 cycles. The tumor sizes were measured two times per week during the treatment. The entire study was terminated on D21 after start of the treatment. All treatments were well-tolerated without any adverse effects or significant body weight loss.

CT26.WT tumors = experiment: Anti-tumor efficacy of Compound 1 by IV and SC routes in the CT26.WT model (Example 8); assay type: in vivo, mice
Procedure: Female BALB/c mice were inoculated subcutaneously in the right flank with CT26.WT cells for tumor development. Six days after tumor inoculation, mice with tumor sizes ranging from 32-77 mm^3 (average tumor size 56 mm^3) were selected and assigned into 6 groups using stratified randomization with 8 mice per group based upon their tumor volumes. The treatments were started from the day of randomization (defined as D0), Group 1 was treated with Vehicle control, q.d.×5 days on (Mon-Fri)×4 cycles s.c.; Group 2 was treated with Compound 1, 0.7 mpk×5 days on (Mon-Fri)×4 cycles s.c.; Group 3 was treated with Compound 1, 1.4 mpk×5 days on (Mon-Fri)×4 cycles s.c.; Group 4 was treated with Compound 1, 4.5 mpk×3-days on (Mon, Wed, Fri)×4 cycles, iv; Group 5 was treated with Compound 1, 7 mpk×2-days on (Mon,Thu)×4 cycles, iv; Group 6 was treated with Compound 1, 14 mpk×1-day on (Mon)×4 cycles, iv. The tumor sizes were measured three times per week during the treatment. The entire study was terminated on D44 after start of the treatment. All treatments were well-tolerated without any adverse effects or significant body weight loss.

[1] = Group 4, 1.4 mg/kg SC 5 d ON 2 d OFF x3 cycles
[2] = Group 4, 1.4 mg/kg SC 5 d ON 2 d OFF x3 cycles, day 21
[3] = Group 5, 3.3 mg/kg IV tiw x3 cycles
[4] = Group 5, 3.3 mg/kg IV tiw x3 cycles, day 21
[5] = Group 2, 0.7 mpk s.c. Mon-Fri x4 cycles
[6] = Group 2, 0.7 mpk s.c. Mon-Fri x4 cycles, day 16
[7] = Group 3, 1.4 mpk s.c. Mon-Fri x4 cycles
[8] = Group 3, 1.4 mpk s.c. Mon-Fri x4 cycles, day 16

SMILES: CC(=O)N[C@@H](Cc1c[nH]c2ccccc12)C(=O)N[C@@H](CCC(=O)C=[N+]=[N-])C(=O)OC(C)C [Compound 1, Isopropyl (S)-2-((S)-2-acetamido-3-(1H-indol-3-yl)propanamido)-6-diazo-5-oxohexanoate]
- RTV at day 21 (A549 tumors; [1]): 8.61 ± 1.30
- Tumor Size at day 21 (A549 tumors; [1]): 1300 ± 161 mm^3
- Tumor volume (A549 tumors; Group 4, 1.4 mg/kg SC 5 d ON 2 d OFF x3 cycles, day 0): 155 ± 10 mm^3
- Tumor volume (A549 tumors; Group 4, 1.4 mg/kg SC 5 d ON 2 d OFF x3 cycles, day 4): 187 ± 12 mm^3
- Tumor volume (A549 tumors; Group 4, 1.4 mg/kg SC 5 d ON 2 d OFF x3 cycles, day 7): 273 ± 25 mm^3
- Tumor volume (A549 tumors; Group 4, 1.4 mg/kg SC 5 d ON 2 d OFF x3 cycles, day 11): 500 ± 59 mm^3
- Tumor volume (A549 tumors; Group 4, 1.4 mg/kg SC 5 d ON 2 d OFF x3 cycles, day 14): 658 ± 92 mm^3
- Tumor volume (A549 tumors; Group 4, 1.4 mg/kg SC 5 d ON 2 d OFF x3 cycles, day 18): 1050 ± 112 mm^3
- T/C (A549 tumors; [2]): 75.88%
- TGI (A549 tumors; [2]): 28.57%
- Tumor volume (A549 tumors; [2]): 1300 ± 161 mm^3
- RTV at day 21 (A549 tumors; [3]): 9.55 ± 1.16
- Tumor Size at day 21 (A549 tumors; [3]): 1453 ± 171 mm^3
- Tumor volume (A549 tumors; Group 5, 3.3 mg/kg IV tiw x3 cycles, day 0): 156 ± 10 mm^3
- Tumor volume (A549 tumors; Group 5, 3.3 mg/kg IV tiw x3 cycles, day 4): 180 ± 12 mm^3
- Tumor volume (A549 tumors; Group 5, 3.3 mg/kg IV tiw x3 cycles, day 7): 268 ± 21 mm^3
- Tumor volume (A549 tumors; Group 5, 3.3 mg/kg IV tiw x3 cycles, day 11): 473 ± 39 mm^3
- Tumor volume (A549 tumors; Group 5, 3.3 mg/kg IV tiw x3 cycles, day 14): 647 ± 66 mm^3
- Tumor volume (A549 tumors; Group 5, 3.3 mg/kg IV tiw x3 cycles, day 18): 1107 ± 119 mm^3
- T/C (A549 tumors; [4]): 84.12%
- TGI (A549 tumors; [4]): 19.04%
- Tumor volume (A549 tumors; [4]): 1453 ± 171 mm^3
- ILS (CT26.WT tumors; [5]): 86.1%
- MST (CT26.WT tumors; [5]): 33.5 days
- RTV at day 16 (CT26.WT tumors; [5]): 4.45 ± 0.74
- Tumor volume (CT26.WT tumors; Group 2, 0.7 mpk s.c. Mon-Fri x4 cycles, day 0): 56 ± 4 mm^3
- Tumor volume (CT26.WT tumors; Group 2, 0.7 mpk s.c. Mon-Fri x4 cycles, day 2): 62 ± 7 mm^3
- Tumor volume (CT26.WT tumors; Group 2, 0.7 mpk s.c. Mon-Fri x4 cycles, day 4): 89 ± 10 mm^3
- Tumor volume (CT26.WT tumors; Group 2, 0.7 mpk s.c. Mon-Fri x4 cycles, day 7): 124 ± 20 mm^3
- Tumor volume (CT26.WT tumors; Group 2, 0.7 mpk s.c. Mon-Fri x4 cycles, day 9): 140 ± 22 mm^3
- Tumor volume (CT26.WT tumors; Group 2, 0.7 mpk s.c. Mon-Fri x4 cycles, day 11): 143 ± 21 mm^3
- Tumor volume (CT26.WT tumors; Group 2, 0.7 mpk s.c. Mon-Fri x4 cycles, day 14): 261 ± 45 mm^3
- T/C (CT26.WT tumors; [6]): 14.25%
- TGI (CT26.WT tumors; [6]): 87.81%
- Tumor volume (CT26.WT tumors; [6]): 259 ± 52 mm^3
- Tumor volume (CT26.WT tumors; Group 2, 0.7 mpk s.c. Mon-Fri x4 cycles, day 18): 308 ± 63 mm^3
- Tumor volume (CT26.WT tumors; Group 2, 0.7 mpk s.c. Mon-Fri x4 cycles, day 21): 407 ± 83 mm^3
- Tumor volume (CT26.WT tumors; Group 2, 0.7 mpk s.c. Mon-Fri x4 cycles, day 23): 522 ± 102 mm^3
- Tumor volume (CT26.WT tumors; Group 2, 0.7 mpk s.c. Mon-Fri x4 cycles, day 25): 648 ± 130 mm^3
- Tumor volume (CT26.WT tumors; Group 2, 0.7 mpk s.c. Mon-Fri x4 cycles, day 28): 1030 ± 194 mm^3
- Tumor volume (CT26.WT tumors; Group 2, 0.7 mpk s.c. Mon-Fri x4 cycles, day 30): 1585 ± 288 mm^3
- ILS (CT26.WT tumors; [7]): 86.1%
- MST (CT26.WT tumors; [7]): 33.5 days
- RTV at day 16 (CT26.WT tumors; [7]): 4.94 ± 0.82
- Tumor volume (CT26.WT tumors; Group 3, 1.4 mpk s.c. Mon-Fri x4 cycles, day 0): 56 ± 5 mm^3
- Tumor volume (CT26.WT tumors; Group 3, 1.4 mpk s.c. Mon-Fri x4 cycles, day 2): 55 ± 7 mm^3
- Tumor volume (CT26.WT tumors; Group 3, 1.4 mpk s.c. Mon-Fri x4 cycles, day 4): 70 ± 8 mm^3
- Tumor volume (CT26.WT tumors; Group 3, 1.4 mpk s.c. Mon-Fri x4 cycles, day 7): 107 ± 19 mm^3
- Tumor volume (CT26.WT tumors; Group 3, 1.4 mpk s.c. Mon-Fri x4 cycles, day 9): 118 ± 21 mm^3
- Tumor volume (CT26.WT tumors; Group 3, 1.4 mpk s.c. Mon-Fri x4 cycles, day 11): 150 ± 26 mm^3
- Tumor volume (CT26.WT tumors; Group 3, 1.4 mpk s.c. Mon-Fri x4 cycles, day 14): 235 ± 35 mm^3
- T/C (CT26.WT tumors; [8]): 15.82%
- TGI (CT26.WT tumors; [8]): 86.45%
